According to patent US8592174B2, “Peptidase substrates” (bioMérieux, S.A., priority 2009, dated 2013):

How the values were obtained:
Type in all cases: cell-based
Candida glabrata 0408083 = test: Peptidase detection on Columbia medium (Example 5); settings: 75 mg/l, 48 h 37° C.
Procedure: (§1) After homogenization, the media were distributed into Petri dishes 55 mm in diameter. A medium acting as a growth control (Columbia) and denoted C was also poured.
(§2) Twenty-two strains of microorganisms were inoculated with a 10 μl calibrated loop according to the three-quadrant streaking method using bacterial suspensions at 0.5 McFarland.

[1] = test system: Burkholderia cepacia 7507032; test: Peptidase detection on Columbia medium (Example 5); settings: 75 mg/l, 48 h 37° C.
Procedure: as §1, §2

[2] = test system: Enterobacter cloacae 0604040; test: Peptidase detection on Columbia medium (Example 5); settings: 75 mg/l, 48 h 37° C.
Procedure: as §1, §2

[3] = test system: Staphylococcus aureus 7811049; test: Peptidase detection on Columbia medium (Example 5); settings: 75 mg/l, 48 h 37° C.
Procedure: as §1, §2

[4] = test system: Yersinia enterocolitica 7605019; test: Peptidase detection on Columbia medium (Example 5); settings: 75 mg/l, 48 h 37° C.
Procedure: as §1, §2

[5] = test system: Morganella morganii 9207053; test: Peptidase detection on Columbia medium (Example 5); settings: 75 mg/l, 48 h 37° C.
Procedure: as §1, §2

[6] = test system: Streptococcus pyogenes 9806380; test: Peptidase detection on Columbia medium (Example 5); settings: 75 mg/l, 48 h 37° C.
Procedure: as §1, §2

Candida albicans 0801025 = test: Peptidase detection on Columbia medium (Example 5); settings: 75 mg/l, 48 h 37° C.
Procedure: as §1, §2

Escherichia coli 0002005 = test: Peptidase detection on Columbia medium (Example 5); settings: 75 mg/l, 48 h 37° C.
Procedure: as §1, §2

[7] = test system: Citrobacter freundii 0006197; test: Peptidase detection on Columbia medium (Example 5); settings: 75 mg/l, 48 h 37° C.
Procedure: as §1, §2

[8] = test system: Pseudomonas aeruginosa 0001001; test: Peptidase detection on Columbia medium (Example 5); settings: 75 mg/l, 48 h 37° C.
Procedure: as §1, §2

[9] = test system: Acinetobacter baumannii 0604029; test: Peptidase detection on Columbia medium (Example 5); settings: 75 mg/l, 48 h 37° C.
Procedure: as §1, §2

[10] = test system: Enterococcus faecalis 0008192; test: Peptidase detection on Columbia medium (Example 5); settings: 75 mg/l, 48 h 37° C.
Procedure: as §1, §2

MRSA 0303033 = test: Peptidase detection on Columbia medium (Example 5); settings: 75 mg/l, 48 h 37° C.
Procedure: as §1, §2

[11] = test system: Bacillus subtilis 0204038; test: Peptidase detection on Columbia medium (Example 5); settings: 75 mg/l, 48 h 37° C.
Procedure: as §1, §2

[12] = test system: Klebsiella pneumoniae 0008009; test: Peptidase detection on Columbia medium (Example 5); settings: 75 mg/l, 48 h 37° C.
Procedure: as §1, §2

[13] = test system: Enterococcus faecium 0610021; test: Peptidase detection on Columbia medium (Example 5); settings: 75 mg/l, 48 h 37° C.
Procedure: as §1, §2

[14] = test system: Serratia marcescens 7303004; test: Peptidase detection on Columbia medium (Example 5); settings: 75 mg/l, 48 h 37° C.
Procedure: as §1, §2

[15] = test system: Salmonella ser. Typhimurium 0801029; test: Peptidase detection on Columbia medium (Example 5); settings: 75 mg/l, 48 h 37° C.
Procedure: as §1, §2

[16] = test system: Staphylococcus epidermidis 0203050; test: Peptidase detection on Columbia medium (Example 5); settings: 75 mg/l, 48 h 37° C.
Procedure: as §1, §2

[17] = test system: Providencia rettgeri 0706064; test: Peptidase detection on Columbia medium (Example 5); settings: 75 mg/l, 48 h 37° C.
Procedure: as §1, §2

[18] = test system: Enterococcus faecalis NCTC 775; test: Peptidase detection on Columbia medium (Example 2); parameters: key to Growth: NG: No growth; 0.5: weak growth; 1: moderate growth; 2: good growth; settings: 40 mg in 400 ml Columbia; 24 h 37° C.
Procedure: (§3) The 6 media were distributed into Petri dishes 90 mm in diameter, in a proportion of 20 ml per dish.
(§4) Seventeen strains of microorganisms stemming from collections and belonging to various species of bacteria and yeasts are inoculated in spots of approximately 10 000 colony-forming units.
(§5) The media are incubated for 24 hours at 37° C., and then the colonies formed are examined visually, with or without the addition of acid and under a UV lamp at 365 nm.

[19] = test system: Enterococcus faecium NCTC 7 171; test: Peptidase detection on Columbia medium (Example 2); parameters: key to Growth: NG: No growth; 0.5: weak growth; 1: moderate growth; 2: good growth; key to Fluo. / Color / Color post-acid.: —: no color; settings: 40 mg in 400 ml Columbia; 24 h 37° C.
Procedure: as §3, §4, §5

[20] = test system: Yersinia enterocolitica NCTC 11 176; test: Peptidase detection on Columbia medium (Example 2); parameters: key to Growth: NG: No growth; 0.5: weak growth; 1: moderate growth; 2: good growth; settings: 40 mg in 400 ml Columbia; 24 h 37° C.
Procedure: as §3, §4, §5

[21] = test system: Providencia rettgeri NCTC 7 475; test: Peptidase detection on Columbia medium (Example 2); parameters: key to Growth: NG: No growth; 0.5: weak growth; 1: moderate growth; 2: good growth; settings: 40 mg in 400 ml Columbia; 24 h 37° C.
[22] = test system: Listeria monocytogenes NCTC 11 994; test: Peptidase detection on Columbia medium (Example 2); parameters: key to Growth: NG: No growth; 0.5: weak growth; 1: moderate growth; 2: good growth; key to Fluo. / Color / Color post-acid.: —: no color; settings: 40 mg in 400 ml Columbia; 24 h 37° C.
[23] = test system: Escherichia coli NCTC 10 418; test: Peptidase detection on Columbia medium (Example 2); parameters: key to Growth: NG: No growth; 0.5: weak growth; 1: moderate growth; 2: good growth; settings: 40 mg in 400 ml Columbia; 24 h 37° C.
Procedure: as §3, §4, §5

[24] = test system: Staphylococcus aureus NCTC 6 571; test: Peptidase detection on Columbia medium (Example 2); parameters: key to Growth: NG: No growth; 0.5: weak growth; 1: moderate growth; 2: good growth; key to Fluo. / Color / Color post-acid.: —: no color; settings: 40 mg in 400 ml Columbia; 24 h 37° C.

C[C@H](N)C(=O)Nc1ccc(C=Cc2cc[n+](C)c3ccccc23)cc1.Cl.[Cl-] [L-alanyl-4-(4′-amidostyryl)-N-methylquinolinium (dichloride)]
Color (Candida glabrata 0408083): −
Coloration strength (Candida glabrata 0408083): −
Growth (Candida glabrata 0408083; control C: +): +
Color [1]: −
Coloration strength [1]: −
Growth ([1]; control C: ++): ++
Color [2]: orange
Coloration strength [2]: +
Growth ([2]; control C: ++): ++
Color [3]: orange
Coloration strength [3]: +
Growth ([3]; control C: ++): ++
Color [4]: orange
Coloration strength [4]: ++
Growth ([4]; control C: +): +
Color [5]: orange
Coloration strength [5]: ++
Growth ([5]; control C: ++): ++
Color [6]: orange
Coloration strength [6]: +
Growth ([6]; control C: +): +
Color (Candida albicans 0801025): −
Coloration strength (Candida albicans 0801025): −
Growth (Candida albicans 0801025; control C: ++): ++
Color (Escherichia coli 0002005): orange
Coloration strength (Escherichia coli 0002005): ++
Growth (Escherichia coli 0002005; control C: ++): ++
Color [7]: orange
Coloration strength [7]: ++
Growth ([7]; control C: ++): ++
Color [8]: orange
Coloration strength [8]: ++
Growth ([8]; control C: ++): ++
Color [9]: orange
Coloration strength [9]: ++
Growth ([9]; control C: ++): ++
Color [10]: orange
Coloration strength [10]: +
Growth ([10]; control C: +): +
Color (MRSA 0303033): orange
Coloration strength (MRSA 0303033): ++
Growth (MRSA 0303033; control C: ++): ++
Color [11]: orange
Coloration strength [11]: +
Growth ([11]; control C: ++): ++
Color [12]: orange
Coloration strength [12]: ++
Growth ([12]; control C: ++): ++
Color [13]: −
Coloration strength [13]: −
Growth ([13]; control C: +): +
Color [14]: orange
Coloration strength [14]: ++
Growth ([14]; control C: ++): ++
Color [15]: −
Coloration strength [15]: −
Growth ([15]; control C: ++): ++
Color [16]: orange
Coloration strength [16]: +
Growth ([16]; control C: ++): ++
Color [17]: orange
Coloration strength [17]: ++
Growth ([17]; control C: ++): ++

C[C@H](N)C(=O)N[C@@H](C)C(=O)N[C@@H](C)C(=O)Nc1ccc(C=Cc2cc[n+](C)c3ccccc23)cc1.Cl.[Cl-] [Tri-Ala-ASQM^+, L-alanyl-L-alanyl-L-alanyl-4-(4′-amidostyryl)-N-methylquinolinium (dichloride)]
Growth [18]: 2
Color [19]: —
Growth [19]: 2
Growth [20]: 2
Growth [21]: 2
Color [22]: —
Growth [22]: 2
Color [23]: Orange
Growth [23]: 2
Color [24]: —
Growth [24]: 2
